According to ChEMBL document CHEMBL4049384, “Synthesis and evaluation of an injectable everolimus prodrug” (Bioorg Med Chem Lett, 2017):

Assays:
[1] = test system: OS-RC-2; assay: Antitumor activity against human OS-RC2 cells xenografted in nude mouse assessed as reduction in tumor volume at 24 mg/kg, iv administered once weekly measured on day 5 relative to control; assay type: functional
[2] = test system: Blood; assay: Prodrug conversion in Sprague-Dawley rat blood assessed as everolimus formation at 2 mg/kg, iv after 2 hrs by HPLC analysis; assay type: ADME, organism-based; settings: in vivo
[3] = test system: Mus musculus; assay: Toxicity in nude mouse xenografted with human OS-RC2 cells assessed as body weight loss at 1.5 mg/kg administered three times a week intravenously and measured on Day 8 (reference value: 8.5 %); assay type: organism-based; settings: in vivo, iv
[4] = test system: Mus musculus; assay: Toxicity in nude mouse xenografted with human OS-RC-2 cells assessed as body weight at 1.5 mg/kg, iv administered three times a week measured on day 1 (reference value: 20.4 +/- 0.33 g); assay type: organism-based; settings: in vivo
[5] = test system: OS-RC-2; assay: Antitumor activity against human OS-RC2 cells xenografted in nude mouse assessed as reduction in tumor volume at 1.5 mg/kg, iv administered three times a week measured on day 29 relative to control; assay type: functional
[6] = test system: OS-RC-2; assay: Antitumor activity against human OS-RC2 cells xenografted in nude mouse assessed as tumor weight at 24 mg/kg, iv administered once weekly measured after 32 days (reference value: 0.68 +/- 0.06 g); assay type: functional
[7] = AUC (0 to t) in Sprague-Dawley rat at 2.724 mg/kg, iv; assay type: ADME, organism-based; settings: in vivo
[8] = test system: Mus musculus; assay: Toxicity in nude mouse xenografted with human OS-RC-2 cells assessed as body weight at 24 mg/kg, iv administered once weekly measured on day 1 (reference value: 20.4 +/- 0.33 g); assay type: organism-based; settings: in vivo
[9] = test system: Mus musculus; assay: Toxicity in nude mouse xenografted with human OS-RC2 cells assessed as body weight loss at 24 mg/kg, iv administered once weekly measured on day 26 (reference value: 28.2 %); assay type: organism-based; settings: in vivo
[10] = test system: Mus musculus; assay: Toxicity in nude mouse xenografted with human OS-RC2 cells assessed as body weight loss at 1.5 mg/kg administered three times a week intravenously and measured on Day 19 (reference value: 23.1 %); assay type: organism-based; settings: in vivo, iv
[11] = test system: OS-RC-2; assay: Antitumor activity against human OS-RC2 cells xenografted in nude mouse assessed as tumor growth inhibition at 24 mg/kg, iv administered once weekly measured after 32 days relative to control; assay type: functional; settings: OS-RC-2, iv, 768 h, read-out: TGI
[12] = test system: OS-RC-2; assay: Antitumor activity against human OS-RC2 cells xenografted in nude mouse assessed as reduction in tumor volume at 1.5 mg/kg, iv administered three times a week measured on day 12 relative to control; assay type: functional
[13] = AUC (0 to infinity) in Sprague-Dawley rat at 2.724 mg/kg, iv; assay type: ADME, organism-based; design: dose 2.724 mg/kg, route intravenous, time infinity; settings: in vivo
[14] = test system: OS-RC-2; assay: Antitumor activity against human OS-RC2 cells xenografted in nude mouse assessed as reduction in tumor volume at 24 mg/kg, iv administered once weekly measured on day 12 relative to control; assay type: functional
[15] = test system: Mus musculus; assay: Toxicity in nude mouse xenografted with human OS-RC2 cells assessed as body weight loss at 24 mg/kg, iv administered once weekly measured on day 15 (reference value: 20.2 %); assay type: organism-based; settings: in vivo
[16] = Prodrug conversion in phosphate buffered saline at pH 7.4 assessed as everolimus formation
[17] = test system: OS-RC-2; assay: Antitumor activity against human OS-RC2 cells xenografted in nude mouse assessed as reduction in tumor volume at 1.5 mg/kg, iv administered three times a week measured on day 22 relative to control; assay type: functional
[18] = test system: Mus musculus; assay: Toxicity in nude mouse xenografted with human OS-RC-2 cells assessed as death at 1.5 mg/kg, iv administered three times a week measured after 32 days; assay type: organism-based; settings: in vivo, 768 h
[19] = test system: Mus musculus; assay: Toxicity in nude mouse xenografted with human OS-RC2 cells assessed as body weight loss at 1.5 mg/kg administered three times a week intravenously and measured on Day 26 (reference value: 28.2 %); assay type: organism-based; settings: in vivo, iv
[20] = test system: Rattus norvegicus; assay: Prodrug conversion in rat assessed as everolimus formation by measuring everolimus AUC at 2 mg/kg, iv; assay type: ADME, organism-based; settings: in vivo
[21] = test system: Mus musculus; assay: Toxicity in nude mouse xenografted with human OS-RC-2 cells assessed as death at 24 mg/kg, iv administered once weekly measured after 32 days; assay type: organism-based; settings: in vivo, 768 h
[22] = test system: Mus musculus; assay: Toxicity in nude mouse xenografted with human OS-RC2 cells assessed as body weight loss at 1.5 mg/kg administered three times a week intravenously and measured on Day 12 (reference value: 15 %); assay type: organism-based; settings: in vivo, iv
[23] = test system: OS-RC-2; assay: Antitumor activity against human OS-RC2 cells xenografted in nude mouse assessed as reduction in tumor volume at 24 mg/kg, iv administered once weekly measured on day 19 relative to control; assay type: functional
[24] = test system: HepG2; assay: Antiproliferative activity against human HepG2 cells after 48 hrs by MTT assay; assay type: functional, cell-based; settings: HepG2, 48 h
[25] = test system: OS-RC-2; assay: Antitumor activity against human OS-RC2 cells xenografted in nude mouse assessed as tumor volume at 1.5 mg/kg, iv administered three times a week measured on day 1 (reference value: 167.51 +/- 17.09 mm3); assay type: functional
[26] = test system: OS-RC-2; assay: Antitumor activity against human OS-RC2 cells xenografted in nude mouse assessed as reduction in tumor volume at 1.5 mg/kg, iv administered three times a week measured on day 26 relative to control; assay type: functional
[27] = test system: Mus musculus; assay: Toxicity in nude mouse xenografted with human OS-RC-2 cells assessed as body weight loss at 24 mg/kg, iv administered once weekly measured after 32 days (reference value: 33%); assay type: organism-based; settings: in vivo, 768 h
[28] = test system: Blood; assay: Prodrug conversion in Sprague-Dawley rat blood assessed as everolimus level at 2.724 mg/kg, iv at 1.5 hrs post dose by HPLC method; assay type: ADME, organism-based; settings: in vivo
[29] = test system: Blood; assay: Prodrug conversion in Sprague-Dawley rat blood assessed as everolimus level at 2.724 mg/kg, iv at 1 hr post dose by HPLC method; assay type: ADME, organism-based; settings: in vivo
[30] = test system: Blood; assay: Prodrug conversion in Sprague-Dawley rat blood assessed as everolimus level at 2.724 mg/kg, iv at 2 hrs post dose by HPLC method; assay type: ADME, organism-based; settings: in vivo
[31] = test system: OS-RC-2; assay: Antitumor activity against human OS-RC2 cells xenografted in nude mouse assessed as reduction in tumor volume at 24 mg/kg, iv administered once weekly measured on day 32 relative to control; assay type: functional
[32] = test system: Mus musculus; assay: Toxicity in nude mouse xenografted with human OS-RC2 cells assessed as body weight loss at 24 mg/kg, iv administered once weekly measured on day 29 (reference value: 31.2 %); assay type: organism-based; settings: in vivo
[33] = Cmax in Sprague-Dawley rat at 2.724 mg/kg, iv; assay type: ADME, organism-based; design: dose 2.724 mg/kg, route intravenous; settings: in vivo
[34] = test system: OS-RC-2; assay: Antitumor activity against human OS-RC2 cells xenografted in nude mouse assessed as reduction in tumor volume at 1.5 mg/kg, iv administered three times a week measured on day 15 relative to control; assay type: functional
[35] = test system: PC-3; assay: Antiproliferative activity against human PC3 cells after 48 hrs by MTT assay; assay type: functional, cell-based; settings: PC-3, 48 h
[36] = test system: Mus musculus; assay: Toxicity in nude mouse xenografted with human OS-RC2 cells assessed as body weight loss at 1.5 mg/kg administered three times a week intravenously and measured on Day 22 (reference value: 23.1 %); assay type: organism-based; settings: in vivo, iv
[37] = test system: Mus musculus; assay: Toxicity in nude mouse xenografted with human OS-RC2 cells assessed as body weight loss at 24 mg/kg, iv administered once weekly measured on day 8 (reference value: 8.5 %); assay type: organism-based; settings: in vivo

**Q.** Which T/C [1] does the source give for `CO[C@H]1C[C@@H]2CC[C@@H](C)[C@@](O)(O2)C(=O)C(=O)N2CCCC[C@H]2C(=O)O[C@H]([C@H](C)C[C@@H]2CC[C@@H](OCCOC(=O)CSC[C@H](NC(=O)CC[C@H](N)C(=O)O)C(=O)NCC(=O)O)[C@H](OC)C2)CC(=O)[C@H](C)/C=C(\C)[C@@H](O)[C@@H](OC)C(=O)[C@H](C)C[C@H](C)\C=C/C=C/C=C/1C` here?
**A.** Its T/C is 0.55%.

**Q.** What about the Drug metabolism [2] of the same compound?
**A.** The Drug metabolism was “Metabolite_Detected”.

**Q.** What about the Activity [3] of the same compound?
**A.** The Activity was 9.2%.

**Q.** And the Activity [4]?
**A.** The Activity was 20.67 g.

**Q.** What about the T/C [5] of the same compound?
**A.** The T/C was 0.54%.

**Q.** And the Activity [6]?
**A.** Its Activity is 0.26 g.

**Q.** What about the AUC(0-t) [7] of the same compound?
**A.** The AUC(0-t) was 2490 ng·h/mL.

**Q.** What about the Activity [8] of the same compound?
**A.** Its Activity is 21.28 g.

**Q.** And the Activity [9]?
**A.** The Activity was 10.2%.

**Q.** What about the Activity [10] of the same compound?
**A.** The Activity was 11.5%.

**Q.** And the inhibition in vivo at 24 mg/kg [11]?
**A.** The inhibition in vivo at 24 mg/kg was 60.6%.

**Q.** And the T/C [12]?
**A.** Its T/C is 0.6%.

**Q.** What about the AUC(0-inf) [13] of the same compound?
**A.** Its AUC(0-inf) is 2510 ng·h/mL.

**Q.** What about the T/C [14] of the same compound?
**A.** The T/C was 0.47%.

**Q.** What about the Activity [15] of the same compound?
**A.** The Activity was 8.9%.

**Q.** What about the Drug metabolism [16] of the same compound?
**A.** Its Drug metabolism is “Metabolite not detected”.

**Q.** What about the T/C [17] of the same compound?
**A.** Its T/C is 0.56%.

**Q.** What about the Activity [18] of the same compound?
**A.** The Activity was “Non-Toxic”.

**Q.** What about the Activity [19] of the same compound?
**A.** The Activity was 13.1%.

**Q.** And the AUC [20]?
**A.** The AUC was 2500 ng·h/mL.

**Q.** What about the Activity [21] of the same compound?
**A.** The Activity was “Non-Toxic”.

**Q.** What about the Activity [22] of the same compound?
**A.** The Activity was 9.5%.

**Q.** And the T/C [23]?
**A.** The T/C was 0.49%.

**Q.** And the IC50 [24]?
**A.** The IC50 was 11.1 µM.

**Q.** And the Activity [25]?
**A.** The Activity was 167.6 mm3.

**Q.** What about the T/C [26] of the same compound?
**A.** Its T/C is 0.52%.

**Q.** What about the Activity [27] of the same compound?
**A.** Its Activity is 10.7%.

**Q.** And the Drug metabolism [28]?
**A.** The Drug metabolism was 40.4142 ng/mL.

**Q.** And the Drug metabolism [29]?
**A.** The Drug metabolism was 73.5532 ng/mL.

**Q.** And the Drug metabolism [30]?
**A.** Its Drug metabolism is 28.155 ng/mL.

**Q.** And the T/C [31]?
**A.** The T/C was 0.53%.

**Q.** What about the Activity [32] of the same compound?
**A.** The Activity was 10.5%.

**Q.** And the Cmax [33]?
**A.** The Cmax was 8420 ng/mL.

**Q.** And the T/C [34]?
**A.** The T/C was 0.55%.

**Q.** What about the IC50 [35] of the same compound?
**A.** Its IC50 is 25.9 µM.

**Q.** What about the Activity [36] of the same compound?
**A.** The Activity was 11.5%.

**Q.** What about the Activity [37] of the same compound?
**A.** Its Activity is 5.3%.
